Reference: patent US11541056B2, “3-hydroxy-N-(3-(7H-pyrrolo[2,3-d]pyrimidin-4-yl)phenyl)pyrrolidine-1-carboxamide derivatives” (NOVARTIS AG, priority 2018, dated 2023)

Assays:
Type in all cases: cell-based
[1] = target: T1, IKZF3-GFP (Homo sapiens, UniProt Q9UKT9); assay: IKZF3-GFP protein abundance flow cytometry assay in HEK293A cells; details: 24 h, Table 1; for IKZF3 deg Amax %: % protein remaining at maximum degradation
T1 construct: gateway cloning of IKZF3 from a pENTR221-IKZF3(STOP-Leu) construct into the previously described pLenti6-DEST-GFP-Ires-RFP vector; expressed in transfected cells; host or cells: HEK293A cells (Invitrogen R70507), lentiviral transduction with pLenti6-IKZF3-GFP-Ires-RFP, blasticidin-selected
T1 sequence (Q96SW2 whole entry partner): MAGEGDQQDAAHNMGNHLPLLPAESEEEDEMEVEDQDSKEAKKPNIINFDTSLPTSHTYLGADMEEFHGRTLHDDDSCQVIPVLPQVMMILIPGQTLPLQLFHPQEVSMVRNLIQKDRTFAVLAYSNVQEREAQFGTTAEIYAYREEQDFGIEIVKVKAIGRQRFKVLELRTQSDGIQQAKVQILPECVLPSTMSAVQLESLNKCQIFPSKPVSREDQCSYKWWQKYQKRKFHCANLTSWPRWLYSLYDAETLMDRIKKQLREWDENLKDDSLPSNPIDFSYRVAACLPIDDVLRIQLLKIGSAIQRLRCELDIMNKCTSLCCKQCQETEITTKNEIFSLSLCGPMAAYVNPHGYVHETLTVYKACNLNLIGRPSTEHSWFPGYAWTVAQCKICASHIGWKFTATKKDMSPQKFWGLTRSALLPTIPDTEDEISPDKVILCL
T1 sequence (Q16531 whole entry partner): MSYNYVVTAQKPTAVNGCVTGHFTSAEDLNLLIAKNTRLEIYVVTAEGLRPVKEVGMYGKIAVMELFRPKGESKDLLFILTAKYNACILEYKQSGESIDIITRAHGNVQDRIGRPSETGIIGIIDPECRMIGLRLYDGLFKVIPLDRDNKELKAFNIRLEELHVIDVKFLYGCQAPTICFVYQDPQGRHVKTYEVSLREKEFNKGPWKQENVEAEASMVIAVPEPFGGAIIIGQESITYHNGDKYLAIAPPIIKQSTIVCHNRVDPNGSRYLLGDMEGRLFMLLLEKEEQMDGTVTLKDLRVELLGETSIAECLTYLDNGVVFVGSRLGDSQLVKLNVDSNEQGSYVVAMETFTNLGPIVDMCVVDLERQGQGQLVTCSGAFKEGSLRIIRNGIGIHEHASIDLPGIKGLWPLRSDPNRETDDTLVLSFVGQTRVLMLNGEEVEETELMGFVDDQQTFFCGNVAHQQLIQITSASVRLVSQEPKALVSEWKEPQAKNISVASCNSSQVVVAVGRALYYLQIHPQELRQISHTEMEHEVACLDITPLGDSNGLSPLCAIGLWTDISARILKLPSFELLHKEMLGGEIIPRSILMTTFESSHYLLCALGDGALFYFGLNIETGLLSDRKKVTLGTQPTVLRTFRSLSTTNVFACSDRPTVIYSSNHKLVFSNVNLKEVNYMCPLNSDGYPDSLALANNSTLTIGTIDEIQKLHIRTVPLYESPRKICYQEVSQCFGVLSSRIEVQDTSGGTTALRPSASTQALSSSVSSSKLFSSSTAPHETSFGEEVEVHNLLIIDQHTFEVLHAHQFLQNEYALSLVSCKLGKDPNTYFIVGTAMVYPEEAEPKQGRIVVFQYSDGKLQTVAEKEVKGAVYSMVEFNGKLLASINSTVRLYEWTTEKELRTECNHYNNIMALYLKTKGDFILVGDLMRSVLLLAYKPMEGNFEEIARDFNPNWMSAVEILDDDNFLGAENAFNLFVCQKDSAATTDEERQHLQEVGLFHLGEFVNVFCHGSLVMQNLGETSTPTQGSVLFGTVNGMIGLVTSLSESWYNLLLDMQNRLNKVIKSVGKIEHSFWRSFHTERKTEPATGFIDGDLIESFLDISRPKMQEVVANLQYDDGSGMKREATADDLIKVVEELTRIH
T1 sequence (Q9UKT9 whole entry): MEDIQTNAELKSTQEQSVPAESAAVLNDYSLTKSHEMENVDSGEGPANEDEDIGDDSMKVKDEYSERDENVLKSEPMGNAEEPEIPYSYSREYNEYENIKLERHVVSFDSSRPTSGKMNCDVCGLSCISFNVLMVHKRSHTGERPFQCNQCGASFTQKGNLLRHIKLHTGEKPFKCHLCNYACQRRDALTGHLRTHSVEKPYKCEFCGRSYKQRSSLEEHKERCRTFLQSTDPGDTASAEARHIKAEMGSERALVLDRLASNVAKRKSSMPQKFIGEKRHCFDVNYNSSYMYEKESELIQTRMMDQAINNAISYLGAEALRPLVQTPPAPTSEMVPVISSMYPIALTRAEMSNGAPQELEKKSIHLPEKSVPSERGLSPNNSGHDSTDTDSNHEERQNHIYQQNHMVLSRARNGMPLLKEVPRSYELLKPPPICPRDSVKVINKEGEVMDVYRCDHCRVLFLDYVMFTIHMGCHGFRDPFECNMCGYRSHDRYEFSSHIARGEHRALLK
Description: Compounds of the invention were tested in the following cellular assays. […] TMD8 cells are BTK dependent and OCI-LY3 cells are BTK independent.
(§1) BTK-GFP and IKZF3-GFP Protein Abundance Flow Cytometry Assay in HEK293A Cells:
(§2) Degradation of BTK or IKZF3 was measured in HEK293A cells (Invitrogen R70507) expressing either BTK-GFP and RFP or IKZF3-GFP and RFP from a stably integrated bicistronic BTK-GFP-iresRFP or IKZF3-GFP-iresRFP construct, respectively. Reduction of the GFP signal measured by flow cytometry served as readout for BTK or IKZF3 degradation after degrader treatment.
(§3) Stable HEK293A-BTK-GFP-iresRFP cells were maintained in complete growth medium (DMEM high Glucose+10% FCS+1% L-Glutamine+1% NEAA+1% NaPyr.) with passaging performed twice per week. On Day 0, HEK293A-BTK-GFP-iresRFP or HEK293A-IKZF3-GFP-iresRFP and HEK293A-iresRFP cells were seeded at 10,000 cells/well in a 96-well microtiter plate in 260 μl complete medium. On Day 1, cells were treated in duplicate with 10-point 1:3 dilution series of compound using the HP D300 Digital Dispenser (Tecan). DMSO concentrations were normalized across the plate to 0.1%. On Day 2, after 24 h of incubation at 37° C., treatment media was discarded, cells rinsed with 100 ul/well PBS and then detached using 40 ul trypsin/well for 5 min. Trypsin was neutralized with 100 ul/well PBS+20% FCS). Flow cytometry was performed on the samples using the BD FACS CANTO II (Becton Dickinson). Cell identification was then performed using forward (FSC) vs. side scatter (SSC) plots. Single cell discrimination is performed using SSC-Width (SSC-W) vs. SSC-Height (SSC-H) plots. Median GFP values for 5,000 single cells are used to determine BTK levels. Median GFP values from HEK293A-iresRFP are used as a background signal and thus defining 0% BTK signal. Median GFP values from DMSO treated HEK293A-BTK-GFP-iresRFP or HEK293A-IKZF3-GFP-iresRFP are used to define 100% BTK signal for subsequent DC50 curves (concentration at 50% BTK degradation). GFP and RFP are read in the channels called FITC and PE, respectively.
(§4) Concentration response curves plotting relative reduction of the GFP signal (measured by flow cytometry) versus 10 compound concentrations (starting concentration 10 μM, 3 fold dilution steps) of the compounds allowed generation of DC50 values.
Data is shown in Table 2, in which, DC50 refers to the concentration at which 50% maximal degradation was observed; deg Amax is the extent of degradation and the value refers to the % protein remaining at the concentration at which maximum degradation is seen.

[2] = target: T2, BTK(C481S)-GFP (Homo sapiens, UniProt Q06187+Q96SW2, C481S); assay: BTK(C481S)-GFP protein abundance flow cytometry assay in TMD8 cells; details: for BTK (C481S) Amax %: % protein remaining at concentration of maximum degradation; for DC50: concentration at which 50% maximal degradation was observed
T2 construct: with a mutagenesis reaction on pENTR221-BTK (STOP-Leu); CHYSEL (cis-acting hydrolase element, 2A) remnant after GFP; mCherry is split off as a separate protein (C); expressed in transfected cells; host or cells: TMD8 cells, lentiviral transduction with pLenti6-BTK(C481S)-GFP-CHYSEL-mCherry
T2 sequence (Q06187 whole entry C481S): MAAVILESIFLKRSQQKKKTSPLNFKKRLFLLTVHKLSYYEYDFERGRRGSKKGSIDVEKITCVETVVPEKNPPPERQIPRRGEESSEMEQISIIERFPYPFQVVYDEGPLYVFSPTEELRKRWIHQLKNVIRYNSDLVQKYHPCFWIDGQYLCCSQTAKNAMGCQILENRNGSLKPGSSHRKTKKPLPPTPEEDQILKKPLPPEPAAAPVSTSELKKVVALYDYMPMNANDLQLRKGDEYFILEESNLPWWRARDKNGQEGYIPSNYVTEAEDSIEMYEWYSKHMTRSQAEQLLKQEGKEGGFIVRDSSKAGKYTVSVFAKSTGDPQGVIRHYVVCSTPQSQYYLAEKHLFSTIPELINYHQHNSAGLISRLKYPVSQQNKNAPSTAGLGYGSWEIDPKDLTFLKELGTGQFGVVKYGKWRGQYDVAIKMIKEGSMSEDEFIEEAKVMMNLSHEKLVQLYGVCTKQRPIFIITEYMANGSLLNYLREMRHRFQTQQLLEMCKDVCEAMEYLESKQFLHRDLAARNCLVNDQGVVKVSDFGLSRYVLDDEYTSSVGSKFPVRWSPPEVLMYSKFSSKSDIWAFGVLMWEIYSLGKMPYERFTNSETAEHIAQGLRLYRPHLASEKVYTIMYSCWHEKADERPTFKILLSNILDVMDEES
T2 sequence (Q96SW2 whole entry): as the sequence (Q96SW2 whole entry partner) above
T2 sequence (Q16531 whole entry partner): as the sequence (Q16531 whole entry partner) above
Description: (§5) Compounds of the invention were tested in the following cellular assays. The terms in Table 1 are defined as follows: DC50 refers to the concentration at which 50% maximal degradation was observed; deg Amax is the extent of degradation and the value refers to the % protein remaining at the concentration at which maximum degradation is seen; Prol GI50 refers to the proliferation data and defines the concentration at which 50% growth inhibition was observed compared to the vehicle treated control at the end of the incubation time. TMD8 cells are BTK dependent and OCI-LY3 cells are BTK independent.
BTK(C481S)-GFP Protein Abundance Flow Cytometry Assay in TMD8 Cells:
Degradation of BTK(C481S) was measured in TMD8 cells expressing BTK(C481S)-GFP and mCherry from a stably integrated second generation bicistronic BTK(C481S)-GFP-CHYSEL-mCherry construct. Reduction of the GFP signal measured by flow cytometry served as readout for BTK(C481S) degradation after degrader treatment.

[3] = target: T3, BTK-GFP (Homo sapiens, UniProt Q06187+Q96SW2); assay: BTK-GFP protein abundance flow cytometry assay in HEK293A cells; details: 24 h; for BTK deg Amax %: % protein remaining at concentration of maximum degradation; for DC50: concentration at which 50% maximal degradation was observed
T3 construct: the BTK open reading frame (ORF) was first shuttled from a pcDNA-DEST40-BTK vector (Invitrogen library ID INV_20090504v1); expressed in transfected cells; host or cells: HEK293A cells (Invitrogen R70507), lentiviral transduction with pLenti6-BTK-GFP-Ires-RFP, blasticidin-selected
T3 sequence (Q06187 whole entry): as the sequence (Q06187 whole entry C481S) above, with S481C counted along it
T3 sequence (Q96SW2 whole entry): as the sequence (Q96SW2 whole entry partner) above
T3 sequence (Q16531 whole entry partner): as the sequence (Q16531 whole entry partner) above
Description: as §5, §1, §2, §3, §4

| SMILES | IKZF3 deg Amax % [1] [%] | DC50 [1] [µM] | BTK (C481S) Amax % [2] [%] | DC50 [2] [nM] | BTK deg Amax % [3] [%] | DC50 [3] [nM] |
| --- | --- | --- | --- | --- | --- | --- |
| COc1ccc(C(=O)N2CCC3(CCN(Cc4ccc(-c5cc6c(-c7cc(F)cc(NC(=O)N8C[C@@H](CC(C)C)[C@H](O)C8)c7C)ncnc6[nH]5)cc4)CC3)CC2)cc1N1CCC(=O)NC1=O (racemic) [Compound 5, trans-rac-N-(3-(6-(4-((9-(3-(2,4-Dioxotetrahydropyrimidin-1(2H)-yl)-4-methoxybenzoyl)-3,9-diazaspiro[5.5]undecan-3-yl)methyl)phenyl)-7H-pyrrolo[2,3-d]pyrimidin-4-yl)-5-fluoro-2-methylphenyl)-3-hydroxy-4-isobutylpyrrolidine-1-carboxamide] | 103.7 | > 3.3 | 2.0 | 1.3 | 4 | 4.9 |
| COc1ccc(C(=O)N2CCC3(CCN(Cc4ccc(-c5cc6c(-c7cc(F)cc(NC(=O)N8C[C@@H](CC(C)C)[C@H](O)C8)c7C)ncnc6[nH]5)cc4)CC3)CC2)cc1N1CCC(=O)NC1=O [Compound 1, (3S,4R)—N-(3-(6-(4-((9-(3-(2,4-Dioxotetrahydropyrimidin-1(2H)-yl)-4-methoxybenzoyl)-3,9-diazaspiro[5.5]undecan-3-yl)methyl)phenyl)-7H-pyrrolo[2,3-d]pyrimidin-4-yl)-5-fluoro-2-methylphenyl)-3-hydroxy-4-isobutylpyrrolidine-1-carboxamide] | 102.7 | > 1.1 | 3.6 | 41 | 15 | 164 |
| COc1ccc(C(=O)N2CCC(OCCN3CCN(Cc4ccc(-c5cc6c(-c7cc(F)cc(NC(=O)N8C[C@H](CC(C)C)[C@@H](O)C8)c7C)ncnc6[nH]5)cc4)CC3)CC2)cc1N1CCC(=O)NC1=O [Compound 2, (3R,4S)—N-(3-(6-(4-((4-(2-((1-(3-(2,4-Dioxotetrahydropyrimidin-1 (2H)-yl)-4-methoxybenzoyl)piperidin-4-yl)oxy)ethyl)piperazin-1-yl)methyl)phenyl)-7H-pyrrolo[2,3-d]pyrimidin-4-yl)-5-fluoro-2-methylphenyl)-3-hydroxy-4-isobutylpyrrolidine-1-carboxamide] | 101.8 | > 3.3 | 2.0 | 0.4 | 2 | 1.4 |
| COc1ccc(C(=O)N2CCC3(CCN(Cc4ccc(-c5cc6c(-c7cc(F)cc(NC(=O)N8C[C@H](CC(C)C)[C@@H](O)C8)c7C)ncnc6[nH]5)cc4)CC3)CC2)cc1N1CCC(=O)NC1=O [Compound 6, (3R,4S)—N-(3-(6-(4-((9-(3-(2,4-Dioxotetrahydropyrimidin-1(2H)-yl)-4-methoxybenzoyl)-3,9-diazaspiro[5.5]undecan-3-yl)methyl)phenyl)-7H-pyrrolo[2,3-d]pyrimidin-4-yl)-5-fluoro-2-methylphenyl)-3-hydroxy-4-isobutylpyrrolidine-1-carboxamide] | 93.5 | > 3.3 | 2.1 | 0.7 | 6.2 | 3.4 |
| COc1ccc(C(=O)N2CCC(OC3CCN(Cc4ccc(-c5cc6c(-c7cc(F)cc(NC(=O)N8C[C@H](CC(C)C)[C@@H](O)C8)c7C)ncnc6[nH]5)cc4)CC3)CC2)cc1N1CCC(=O)NC1=O [Compound 8, (3R,4S)—N-(3-(6-(4-((4-((1-(3-(2,4-Dioxotetrahydropyrimidin-1(2H)-yl)-4-methoxybenzoyl)piperidin-4-yl)oxy)piperidin-1-yl)methyl)phenyl)-7H-pyrrolo[2,3-d]pyrimidin-4-yl)-5-fluoro-2-methylphenyl)-3-hydroxy-4-isobutylpyrrolidine-1-carboxamide] | 107.4 | > 1 | 2.7 | 0.4 | 4.5 | 1 |
| COc1ccc(C(=O)N2CCC(CN3CCC(Oc4ccc(-c5cc6c(-c7cc(F)cc(NC(=O)N8C[C@H](CC(C)C)[C@@H](O)C8)c7C)ncnc6[nH]5)cc4)CC3)CC2)cc1N1CCC(=O)NC1=O [Compound 11, (3R,4S)—N-(3-(6-(4-((1-((1-(3-(2,4-Dioxotetrahydropyrimidin-1 (2H)-yl)-4-methoxybenzoyl)piperidin-4-yl)methyl)piperidin-4-yl)oxy)phenyl)-7H-pyrrolo[2,3-d]pyrimidin-4-yl)-5-fluoro-2-methylphenyl)-3-hydroxy-4-isobutylpyrrolidine-1-carboxamide] | 96.7 | > 10 | 2.2 | 0.2 | 2.3 | 0.6 |
| COc1ccc(C(=O)N2CCC(CN3CCN(Cc4ccc(-c5cc6c(-c7cc(F)cc(NC(=O)N8C[C@H](CC(C)C)[C@@H](O)C8)c7C)ncnc6[nH]5)cc4)CC3)CC2)cc1N1CCC(=O)NC1=O [Compound 12, (3R,4S)—N-(3-(6-(4-((4-((1-(3-(2,4-Dioxotetrahydropyrimidin-1(2H)-yl)-4-methoxybenzoyl)piperidin-4-yl)methyl)piperazin-1-yl)methyl)phenyl)-7H-pyrrolo[2,3-d]pyrimidin-4-yl)-5-fluoro-2-methylphenyl)-3-hydroxy-4-isobutylpyrrolidine-1-carboxamide] | 104.0 | > 1.1 | 3.0 | 0.3 | 4.3 | 0.7 |
| COc1ccc(C(=O)N2CCC(OC3CCN(CCc4ccc(-c5cc6c(-c7cc(F)cc(NC(=O)N8C[C@H](CC(C)C)[C@@H](O)C8)c7C)ncnc6[nH]5)cc4)CC3)CC2)cc1N1CCC(=O)NC1=O [Compound 13, (3R,4S)—N-(3-(6-(4-(2-(4-((1-(3-(2,4-Dioxotetrahydropyrimidin-1(2H)-yl)-4-methoxybenzoyl)piperidin-4-yl)oxy)piperidin-1-yl)ethyl)phenyl)-7H-pyrrolo[2,3-d]pyrimidin-4-yl)-5-fluoro-2-methylphenyl)-3-hydroxy-4-isobutylpyrrolidine-1-carboxamide] | 99.7 | > 3.3 | 1.1 | 0.2 | 2.9 | 0.5 |
